Experimental findings from US3953442A (priority 1972, dated 1976) are described below.

Like-named read-outs stand apart in the source and are kept apart here.

A word on the LD50: it is the dose at which mortality reaches 50%. Read a high LD50 as a less toxic substance.

One data set has as its system central nervous system. Put plainly: animal or person. Type of data set: in vivo. The settings on record: Mus musculus, read-out: Spontaneous pattern of activity (table head: LD50 in mg/kg).
The subject of the next data set is visceral pain. As to the kind of experiment: Analgesic effect, acetic acid induced visceral pain in the mouse (Koster and Anderson test). It is filed as in vivo. Conditions: oral, 30 min before acetic acid injection, 50% effective dose. The protocol:
The compounds (I) are analgesic agents.
A visceral pain is induced in the mouse by intraperitonal injection of a dilute solution of acetic acid (Koster and Anderson test).
The animals, which are starved on the day before the experiment and separated into random batches of 5, are treated with the products under test thirty minutes before injection of the irritant. Treatment was always performed orally.
After the acetic acid solution is injected the animals show symptoms of pain (stretching of the abdomen with extension of the back feet) which are counted during two spells of 5 minutes for each lot: from the fifth to the tenth minute and from the fifteenth to the twentieth minute respectively after the acid is injected
The ED50 value is expressed in mg kg bodyweight

Data set [1] in a line: Acute toxicity (LD50) in the mouse. The settings on record: in vivo. The protocol:
The compounds of the present invention are not very toxic. By way of example, with the mouse, the dose which causes the death of 50 % of the animals or (LD50) is about 400 mg/kg bodyweight by oral and sub-cutaneous administration in the case of 5862.

As to `CC(Cc1cn(-c2ccccc2)c2ccccc12)N(C)C` (centres unmarked) [compound 5483], the results for the ED50 in the data set with central nervous system (ip), in the data set with central nervous system (po) and with visceral pain were 5 mg/kg, 25 mg/kg and 12.5 mg/kg, respectively.
Regarding `CC(Cc1cn(-c2ccccc2Cl)c2ccccc12)N1CCCC1` (centres unmarked) [compound 5984], the ED50 in the data set with central nervous system (ip) was determined as 0.25 mg/kg; with central nervous system (po) it was 10 mg/kg.
As for `CC(Cc1cn(-c2ccc(Cl)cc2)c2ccc(F)cc12)N1CCCC1` (centres unmarked) [compound 6251], the ED50 in the data set on central nervous system (ip) came out at 9 mg/kg; in the data set with central nervous system (po), 25 mg/kg; in the data set on visceral pain it was 12.5 mg/kg.
On to `CC(Cc1cn(-c2ccccn2)c2ccccc12)N(C)C` (centres unmarked) [compound 6099], for which, in the data set with central nervous system (ip), the ED50 was 50 mg/kg.
`CNC(C)Cc1cn(-c2ccccc2F)c2ccccc12` (centres unmarked) [compound 6050]: the ED50 with central nervous system (ip) is 12.5 mg/kg.
In the case of `CNC(C)Cc1cn(-c2ccc(OC)cc2)c2ccccc12` (centres unmarked) [compound 5772], in the data set on central nervous system (ip), the ED50 was found to be 25 mg/kg.
Take `CC(Cc1cn(-c2ccc(Cl)cc2)c2ccc(F)cc12)N(C)C` (centres unmarked) [compound 6264]: the ED50 in the data set on central nervous system (ip) worked out at 20 mg/kg.
`CC(Cc1cn(-c2ccccc2F)c2ccccc12)N1CCCC1` (centres unmarked) [compound 5988]: the ED50 came to 5 mg/kg with central nervous system (ip) and 12.5 mg/kg in the data set on visceral pain.
In the case of `CC(N)Cc1cn(-c2ccc(F)cc2)c2ccccc12` (centres unmarked) [compound 6254], in the data set on central nervous system (ip), the ED50 worked out at 80 mg/kg.
As for `CC(Cc1cn(-c2ccc(F)cc2)c2ccccc12)N1CCCC1.Cl` (centres unmarked) [compound 5862, 3-(2-pyrrolidinopropyl)-1-(4-fluorophenyl)indole hydrochloride], the figures for the ED50 with central nervous system (ip) and with visceral pain were 0.4 mg/kg and 3.12 mg/kg, respectively. The LD50 in data set [1] (oral) is approximately 400 mg/kg; in data set [1] (sc, sub-cutaneous) it was approximately 400 mg/kg.
Consider `COc1ccc2c(c1)c(CC(C)N1CCCC1)cn2-c1ccc(F)cc1` (centres unmarked) [compound 6270], for which, in the data set with central nervous system (ip), the ED50 came out at 3.12 mg/kg.
Turning to `COc1ccc(-n2cc(CC(C)N(C)C)c3ccccc32)cc1` (centres unmarked) [compound 5773], the ED50 in the data set on central nervous system (ip) turned out to be 1.25 mg/kg; with central nervous system (po), 40 mg/kg; with visceral pain, 12.5 mg/kg.
On to `COc1ccc(-n2cc(CC(C)NC(C)C)c3ccccc32)cc1` (centres unmarked) [compound 5774, 1-(4-methoxyphenyl)-3-(2-isopropylaminopropyl)indole], for which the ED50 with central nervous system (ip) is 12.5 mg/kg.
On to `COc1ccc(-n2cc(CC(C)N3CCCCC3)c3ccccc32)cc1` (centres unmarked) [compound 5776], for which the ED50 with central nervous system (ip) was determined as 5 mg/kg; in the data set on central nervous system (po) it was 35 mg/kg.
Turning to `CC(Cc1cn(-c2ccc(F)cc2)c2ccc(F)cc12)N(C)C` (centres unmarked) [compound 6269], the ED50 in the data set on central nervous system (ip) and in the data set with visceral pain was 6.25 mg/kg in each case.
Consider `CNC(C)Cc1cn(-c2ccccc2)c2ccccc12` (centres unmarked) [compound 5479], for which the ED50 in the data set with central nervous system (ip) was found to be 2.5 mg/kg; in the data set with central nervous system (po), 25 mg/kg.
Consider `CC(Cc1cn(-c2ccc(F)cc2)c2ccc(F)cc12)N1CCCC1` (centres unmarked) [compound 6250], for which the ED50 in the data set on central nervous system (ip) worked out at 0.8 mg/kg; in the data set on central nervous system (po) it was 3.12 mg/kg.
On to `CC(Cc1cn(-c2ccccc2)c2ccc(F)cc12)N1CCCC1` (centres unmarked) [compound 6116], for which the ED50 in the data set with central nervous system (ip) came out at 0.25 mg/kg. The LD50 in data set [1] (sc, sub-cutaneous) was more than 1000 mg/kg.
Consider `COc1ccc(-n2cc(CC(C)N3CCOCC3)c3ccccc32)cc1` (centres unmarked) [compound 5777], for which, in the data set with central nervous system (ip), the ED50 turned out to be 25 mg/kg.
Take `CC(Cc1cn(-c2ccc(F)cc2)c2ccccc12)N(C)C` (centres unmarked) [compound 5864]: the ED50 with central nervous system (ip) worked out at 2 mg/kg; in the data set on visceral pain it was 3.12 mg/kg.
As for `CC(Cc1cn(-c2ccc(F)cc2)c2ccc(Cl)cc12)N1CCCC1` (centres unmarked) [compound 6112, 5-chloro-1-(4-fluorophenyl)-3-(2-pyrrolidinopropyl)indole], the ED50 in the data set on central nervous system (ip) amounted to 0.4 mg/kg; in the data set with visceral pain, 0.75 mg/kg. The LD50 in data set [1] (oral) is more than 800 mg/kg; in data set [1] (sc, sub-cutaneous) it was 400 to 800 mg/kg.
For the compound `CC(Cc1cn(-c2ccc(Cl)cc2)c2ccccc12)N(C)C` (centres unmarked) [compound 5860], the ED50 came to 5 mg/kg with central nervous system (ip) and 25 mg/kg in the data set on visceral pain.
For `CC(Cc1cn(-c2cccnc2)c2ccccc12)N(C)C` (centres unmarked) [compound 6097], in the data set on central nervous system (ip), the ED50 is 10 mg/kg.
As for `CNC(C)Cc1cn(-c2ccccn2)c2ccccc12` (centres unmarked) [compound 6104], the ED50 with central nervous system (ip) was 25 mg/kg.
As for `CC(Cc1cn(-c2ccccc2)c2ccccc12)N1CCCCC1` (centres unmarked) [compound 5478], the ED50 in the data set with central nervous system (ip) and in the data set on visceral pain was 12.5 mg/kg in each case.
For `COc1ccc2c(c1)c(CC(C)N1CCCC1)cn2-c1ccccc1` (centres unmarked) [compound 6066], the ED50 with central nervous system (ip) turned out to be 10 mg/kg.
For `CC(Cc1cn(-c2ccccc2)c2ccccc12)N1CCCC1` (centres unmarked) [compound 5480], the figures for the ED50 in the data set with central nervous system (ip) and in the data set with central nervous system (po) were 2.5 mg/kg and 12.5 mg/kg, respectively.
Turning to `COc1ccc(-n2cc(CC(C)N3CCCC3)c3ccccc32)cc1` (centres unmarked) [compound 5775], the figures for the ED50 in the data set with central nervous system (ip) and in the data set on visceral pain were 1 mg/kg and 25 mg/kg, respectively.
Compound `CC(Cc1cn(-c2ccc(Cl)cc2)c2ccccc12)N1CCCC1` (centres unmarked) [compound 5861] came in with an ED50 in the data set with visceral pain of 25 mg/kg.
Turning to `CC(Cc1cn(-c2ccccc2)c2ccccc12)N1CCOCC1` (centres unmarked) [compound 5481], the figures for the ED50 with central nervous system (ip) and in the data set on visceral pain were 2.5 mg/kg and 12.5 mg/kg, respectively.
As for `CNC(C)Cc1cn(-c2ccccc2Cl)c2ccccc12` (centres unmarked) [compound 6051], the results for the ED50 in the data set on central nervous system (ip) and in the data set with visceral pain were 5 mg/kg and 50 mg/kg, respectively.
In the case of `CC(Cc1cn(-c2ccc(F)cc2)c2ccc(Cl)cc12)N(C)C` (centres unmarked) [compound 6268], in the data set on central nervous system (ip), the ED50 was found to be 6.25 mg/kg.
In the case of `CNC(C)Cc1cn(-c2ccc(N)cc2)c2ccccc12` (centres unmarked) [compound 5935], in the data set with central nervous system (ip), the ED50 was found to be 2.5 mg/kg.
For `CNC(C)Cc1cn(-c2ccc(F)cc2)c2ccccc12` (centres unmarked) [compound 5863], the ED50 in the data set with central nervous system (ip) came out at 2 mg/kg; in the data set on visceral pain, 6.25 mg/kg.
In the case of `CC(Cc1cn(-c2ccccc2)c2ccc(F)cc12)N(C)C` (centres unmarked) [compound 6265], in the data set with central nervous system (ip), the ED50 was determined as 20 mg/kg.
Turning to `CC(Cc1cn(-c2ccccn2)c2ccccc12)N1CCCC1` (centres unmarked) [compound 6102], the ED50 in the data set with central nervous system (ip) was found to be 12.5 mg/kg.
For `COc1ccc2c(c1)c(CC(C)N(C)C)cn2-c1ccccc1` (centres unmarked) [compound 6271], in the data set with central nervous system (ip), the ED50 was found to be 12.5 mg/kg.
For the compound `CC(Cc1cn(-c2ccccc2Cl)c2ccccc12)N(C)C` (centres unmarked) [compound 5987], the ED50 in the data set with central nervous system (ip) came out at 6 mg/kg; in the data set on central nervous system (po) it was 6.25 mg/kg; with visceral pain, 12.5 mg/kg.
In the case of `CNC(C)Cc1cn(-c2ccc(Cl)cc2)c2ccccc12` (centres unmarked) [compound 5859], in the data set on central nervous system (ip), the ED50 is 5 mg/kg.
